From patent publication US12214092B2, “Systems and methods for treating biological fluids” (Cerus Corporation, priority 2017, dated 2025)

How the values were obtained:
platelets = assay: Platelet quality, platelets in 35% plasma/65% PAS III, amotosalen 30-110 μM, 340 nm device ~7.2 J/cm^2; type: cell-based
[1] = Residual amotosalen in whole-blood derived plasma, 50 μM, ~6.4 J/cm^2, HPLC; type: physicochemical
Source text: This pool and split format was repeated four times to generate four replicates.

Work on `Cc1oc2c(C)c3oc(=O)cc(C)c3cc2c1COCCN` [S-59, 3-(2-aminoethoxymethyl)-2,5,9-trimethylfuro[3,2-g]chromen-7-one] yielded a Glucose (platelets; 30 μM, D4) of 3.27 mmol/L, an LDH (platelets; 30 μM, D4) of 7.44 LDH IU/10^11 platelets and a Lactate (platelets; 30 μM, D4) of 7.1 mmol/L. The Platelet counts (platelets; 30 μM, D4) was 1385 x10^3 cells/μL, the Platelet lysis (platelets; 30 μM, D4) was 2.86% and the “pCO2 at 37° C.” value (platelets; 30 μM, D4) was 26.7 mm Hg. The “pH at 22° C.” value (platelets; 30 μM, D4) was 7.11, the “pH at 37° C.” value (platelets; 30 μM, D4) was 6.88 and the “pO2 at 37° C.” value (platelets; 30 μM, D4) was 28.9 mm Hg. For the same molecule, the Glucose (platelets; 30 μM, D7) was 0.16 mmol/L, the LDH (platelets; 30 μM, D7) was 8.26 LDH IU/10^11 platelets and the Lactate (platelets; 30 μM, D7) was 15.38 mmol/L. The Platelet counts (platelets; 30 μM, D7) was 1392 x10^3 cells/μL, the Platelet lysis (platelets; 30 μM, D7) was 3.17% and the “pCO2 at 37° C.” value (platelets; 30 μM, D7) was 23.6 mm Hg. The “pH at 22° C.” value (platelets; 30 μM, D7) was 7.08, the “pH at 37° C.” value (platelets; 30 μM, D7) was 6.86 and the “pO2 at 37° C.” value (platelets; 30 μM, D7) was 57.3 mm Hg. The Glucose (platelets; 30 μM, Post-UV) was 5.45 mmol/L, the LDH (platelets; 30 μM, Post-UV) was 7.80 LDH IU/10^11 platelets and the Lactate (platelets; 30 μM, Post-UV) was 8.21 mmol/L. The Platelet counts (platelets; 30 μM, Post-UV) was 1308 x10^3 cells/μL, the Platelet lysis (platelets; 30 μM, Post-UV) was 2.85% and the “pCO2 at 37° C.” value (platelets; 30 μM, Post-UV) was 34.9 mm Hg. The “pH at 22° C.” value (platelets; 30 μM, Post-UV) was 7.07, the “pH at 37° C.” value (platelets; 30 μM, Post-UV) was 6.84 and the “pO2 at 37° C.” value (platelets; 30 μM, Post-UV) was 11.6 mm Hg. It also gave a Glucose (platelets; 30 μM, Pre-UV) of 5.2 mmol/L, an LDH (platelets; 30 μM, Pre-UV) of 7.13 LDH IU/10^11 platelets and a Lactate (platelets; 30 μM, Pre-UV) of 8.6 mmol/L. The Platelet counts (platelets; 30 μM, Pre-UV) was 1346 x10^3 cells/μL, the Platelet lysis (platelets; 30 μM, Pre-UV) was 2.46% and the “pCO2 at 37° C.” value (platelets; 30 μM, Pre-UV) was 35.0 mm Hg. For the same molecule, the “pH at 22° C.” value (platelets; 30 μM, Pre-UV) was 7.07, the “pH at 37° C.” value (platelets; 30 μM, Pre-UV) was 6.85 and the “pO2 at 37° C.” value (platelets; 30 μM, Pre-UV) was 4.8 mm Hg. For the same molecule, the Glucose (platelets; 60 μM, D4) was 2.92 mmol/L, the LDH (platelets; 60 μM, D4) was 8.12 LDH IU/10^11 platelets and the Lactate (platelets; 60 μM, D4) was 10.11 mmol/L. For the same molecule, the Platelet counts (platelets; 60 μM, D4) was 1379 x10^3 cells/μL, the Platelet lysis (platelets; 60 μM, D4) was 3.10% and the “pCO2 at 37° C.” value (platelets; 60 μM, D4) was 26.6 mm Hg. For the same molecule, the “pH at 22° C.” value (platelets; 60 μM, D4) was 7.11, the “pH at 37° C.” value (platelets; 60 μM, D4) was 6.88 and the “pO2 at 37° C.” value (platelets; 60 μM, D4) was 28.8 mm Hg. For the same molecule, the Glucose (platelets; 60 μM, D7) was 0 mmol/L, the LDH (platelets; 60 μM, D7) was 8.48 LDH IU/10^11 platelets and the Lactate (platelets; 60 μM, D7) was 15.16 mmol/L. For the same molecule, the Platelet counts (platelets; 60 μM, D7) was 1403 x10^3 cells/μL, the Platelet lysis (platelets; 60 μM, D7) was 3.37% and the “pCO2 at 37° C.” value (platelets; 60 μM, D7) was 23.1 mm Hg. For the same molecule, the “pH at 22° C.” value (platelets; 60 μM, D7) was 7.08, the “pH at 37° C.” value (platelets; 60 μM, D7) was 6.86 and the “pO2 at 37° C.” value (platelets; 60 μM, D7) was 61.0 mm Hg. It also gave a Glucose (platelets; 60 μM, Post-UV) of 5.04 mmol/L, an LDH (platelets; 60 μM, Post-UV) of 7.53 LDH IU/10^11 platelets and a Lactate (platelets; 60 μM, Post-UV) of 6.93 mmol/L. For the same molecule, the Platelet counts (platelets; 60 μM, Post-UV) was 1249 x10^3 cells/μL, the Platelet lysis (platelets; 60 μM, Post-UV) was 2.65% and the “pCO2 at 37° C.” value (platelets; 60 μM, Post-UV) was 35.1 mm Hg. The “pH at 22° C.” value (platelets; 60 μM, Post-UV) was 7.06, the “pH at 37° C.” value (platelets; 60 μM, Post-UV) was 6.83 and the “pO2 at 37° C.” value (platelets; 60 μM, Post-UV) was 8.0 mm Hg. It also gave a Glucose (platelets; 60 μM, Pre-UV) of 5.16 mmol/L, an LDH (platelets; 60 μM, Pre-UV) of 7.66 LDH IU/10^11 platelets and a Lactate (platelets; 60 μM, Pre-UV) of 6.72 mmol/L. The Platelet counts (platelets; 60 μM, Pre-UV) was 1344 x10^3 cells/μL, the Platelet lysis (platelets; 60 μM, Pre-UV) was 2.68% and the “pCO2 at 37° C.” value (platelets; 60 μM, Pre-UV) was 33.7 mm Hg. For the same molecule, the “pH at 22° C.” value (platelets; 60 μM, Pre-UV) was 7.08, the “pH at 37° C.” value (platelets; 60 μM, Pre-UV) was 6.85 and the “pO2 at 37° C.” value (platelets; 60 μM, Pre-UV) was 29.4 mm Hg. For the same molecule, the Glucose (platelets; 90 μM, D4) was 2.97 mmol/L, the Lactate (platelets; 90 μM, D4) was 9.83 mmol/L and the Platelet counts (platelets; 90 μM, D4) was 1373 x10^3 cells/μL. The Platelet lysis (platelets; 90 μM, D4) was 3.23%, the “pCO2 at 37° C.” value (platelets; 90 μM, D4) was 26.9 mm Hg and the “pH at 22° C.” value (platelets; 90 μM, D4) was 7.10. For the same molecule, the “pH at 37° C.” value (platelets; 90 μM, D4) was 6.87, the “pO2 at 37° C.” value (platelets; 90 μM, D4) was 25.7 mm Hg and the Glucose (platelets; 90 μM, D7) was 0 mmol/L. For the same molecule, the LDH (platelets; 90 μM, D7) was 8.67 LDH IU/10^11 platelets, the Lactate (platelets; 90 μM, D7) was 14.62 mmol/L and the Platelet counts (platelets; 90 μM, D7) was 1384 x10^3 cells/μL. The Platelet lysis (platelets; 90 μM, D7) was 3.53%, the “pCO2 at 37° C.” value (platelets; 90 μM, D7) was 22.6 mm Hg and the “pH at 22° C.” value (platelets; 90 μM, D7) was 7.10. The “pH at 37° C.” value (platelets; 90 μM, D7) was 6.87, the “pO2 at 37° C.” value (platelets; 90 μM, D7) was 61.8 mm Hg and the Glucose (platelets; 90 μM, Post-UV) was 4.95 mmol/L. The Lactate (platelets; 90 μM, Post-UV) was 7.11 mmol/L, the Platelet counts (platelets; 90 μM, Post-UV) was 1313 x10^3 cells/μL and the Platelet lysis (platelets; 90 μM, Post-UV) was 2.64%. The “pCO2 at 37° C.” value (platelets; 90 μM, Post-UV) was 33.7 mm Hg, the “pH at 22° C.” value (platelets; 90 μM, Post-UV) was 7.06 and the “pH at 37° C.” value (platelets; 90 μM, Post-UV) was 6.83. The “pO2 at 37° C.” value (platelets; 90 μM, Post-UV) was 29.3 mm Hg, the Glucose (platelets; 90 μM, Pre-UV) was 4.9 mmol/L and the Lactate (platelets; 90 μM, Pre-UV) was 6.95 mmol/L. For the same molecule, the Platelet counts (platelets; 90 μM, Pre-UV) was 1344 x10^3 cells/μL, the Platelet lysis (platelets; 90 μM, Pre-UV) was 2.76% and the “pCO2 at 37° C.” value (platelets; 90 μM, Pre-UV) was 34.9 mm Hg. For the same molecule, the “pH at 22° C.” value (platelets; 90 μM, Pre-UV) was 7.06, the “pH at 37° C.” value (platelets; 90 μM, Pre-UV) was 6.84 and the “pO2 at 37° C.” value (platelets; 90 μM, Pre-UV) was 9.0 mm Hg. The Platelet counts (platelets; 110 μM, D4) was 0 x10^3 cells/μL, the Platelet counts (platelets; 110 μM, D7) was 0 x10^3 cells/μL and the Glucose (platelets; 110 μM, Post-UV) was 4.88 mmol/L. The LDH (platelets; 110 μM, Post-UV) was 6.97 LDH IU/10^11 platelets, the Lactate (platelets; 110 μM, Post-UV) was 7.18 mmol/L and the Platelet counts (platelets; 110 μM, Post-UV) was 1335 x10^3 cells/μL. The Platelet lysis (platelets; 110 μM, Post-UV) was 2.72%, the “pCO2 at 37° C.” value (platelets; 110 μM, Post-UV) was 34.2 mm Hg and the “pH at 22° C.” value (platelets; 110 μM, Post-UV) was 7.05. For the same molecule, the “pH at 37° C.” value (platelets; 110 μM, Post-UV) was 6.83, the “pO2 at 37° C.” value (platelets; 110 μM, Post-UV) was 16.1 mm Hg and the Glucose (platelets; 110 μM, Pre-UV) was 4.95 mmol/L. For the same molecule, the LDH (platelets; 110 μM, Pre-UV) was 7.42 LDH IU/10^11 platelets, the Lactate (platelets; 110 μM, Pre-UV) was 6.85 mmol/L and the Platelet counts (platelets; 110 μM, Pre-UV) was 1308 x10^3 cells/μL. The Platelet lysis (platelets; 110 μM, Pre-UV) was 2.65%, the “pCO2 at 37° C.” value (platelets; 110 μM, Pre-UV) was 33.7 mm Hg and the “pH at 22° C.” value (platelets; 110 μM, Pre-UV) was 7.07. The “pH at 37° C.” value (platelets; 110 μM, Pre-UV) was 6.84, the “pO2 at 37° C.” value (platelets; 110 μM, Pre-UV) was 6.3 mm Hg and the residual amotosalen concentration ([1]; 340 nm device) was 4.65 µM. The residual amotosalen concentration ([1]; INT-100 device) was 17.06 µM.
